Read-outs that look alike come from different tables or passages of the source.
Assays:
[1] = Tigecycline plasma PK after IV bolus in dogs; assay type: in vivo, Beagle dogs; details: female, beagle, dog, plasma; for AUC(0-t) / Cmax: iv
Method: Adult beagle dogs weighing approximately 9 to 15 kg were used in the study. […] Room temperature was set to be maintained between approximately 20±5° C. Relative humidity was monitored but not controlled.
TEKLAD™ Certified Canine Diet was provided once daily in amounts (˜400 grams) appropriate for the size and age of the animals. Tap water was available ad libitum via automatic watering device or water bowls.
Doses are expressed in terms of free net tigecycline content. […] Oral dosing of enteric-coated capsules was accomplished by administering them to the back of the dog's mouth, followed by a chase of 5 mL water to ensure swallowing.
Water was provided ad libitum. […] Subsequently, each group of animals was dosed based on the protocol, i.e. either IV, or PO by capsule.
Minocycline (VWR international) was used as an internal standard. Sample processing/clean-up of plasma samples was carried out offline by protein precipitation with acidified acetonitrile using 0.5% trifluoroacetic acid (TFA).
The HPLC system consisted of Shimadzu SIL-HTc HPLC system equipped with dual Shimadzu LC-10ADvp isopumps, a Shimadzu CTO-10ASvp column temperature controller and a Shimadzu SPD-10Avp variable wavelength detector. […] Mobile phase A consisted of 23 mM phosphate buffer pH 2.5 with 4 mM 1-octanesulfonic acid, while mobile phase B consisting of 90% acetonitrile, 10% water, with 2 mM 1-octanesulfonic acid. […] The total runtime was 18 minutes per sample. The mobile phase flow rate was 1.2 mL/min. Detection was performed using the SPD-10Avp variable wavelength detector set at 350 nm, with a sensitivity of 0.001 aufs.
The samples were then centrifuged under refrigeration at 13 k rpm for 5 minutes. The supernatant was taken and the liquid removed to dryness under nitrogen in a turbovap. The dried extract was reconstituted in 60 μL of mobile phase A and the suspension was further centrifuged at 5 k rpm for 5 minutes to pellet any insoluble matter. The resulting supernatant was then injected onto the LC.
The unknown concentration in dog plasma samples was determined by interpolation of the peak area ratios of analyte:internal standard versus the ratio of their nominal concentrations into the regression line obtained from calibration standards spiked in pooled dog plasma. No regression weighting was used for the calculations. […] The calibration curve covered the range of 0.05 μg/mL to 5 μg/mL.
It should be noted however, that when the method was transferred to an older HPLC system (equipped with a Shimadzu SCT-10Avp system controller and SIL-10A autoinjector), the time program was further altered such that the gradient went to 38% mobile phase B to account to system design changes. All other parameters remained unchanged.
Tigecycline PK parameters for individual dogs were calculated using non-compartmental analysis with PK Functions for Microsoft Excel.

[2] = known formulations; cited from earlier work
[3] = intravenous, 1 mg, Tigecycline Plasma Concentration, 1 mg IV in PBS (0.08 mg/kg), SC427, mean
[4] = intravenous, 5 mg, Tigecycline Plasma Concentration, 5 mg IV in PBS ([…]), SC431, individual dogs
[5] = intravenous, 5 mg, Tigecycline Plasma Concentration, 5 mg IV in PBS ([…]), SC431, mean

Structure (SMILES): CN(C)c1cc(NC(=O)CNC(C)(C)C)c(O)c2c1C[C@H]1C[C@H]3[C@H](N(C)C)C(O)=C(C(N)=O)C(=O)[C@@]3(O)C(O)=C1C2=O [Tigecycline]
- concentration at 120 min [1, 3]: 11.1 ng/mL
- concentration at 360 min [1, 3]: 1.15 ng/mL
- concentration at 5 min [1, 4]: 336 ng/mL
- concentration at 5 min [1, 5]: 335 ng/mL
- concentration at 10 min [1, 4]: 198 ng/mL
- concentration at 10 min [1, 5]: 163 ng/mL
- concentration at 15 min [1, 4]: 122 ng/mL
- concentration at 15 min [1, 5]: 111 ng/mL
- concentration at 20 min [1, 4]: 117 ng/mL
- concentration at 20 min [1, 5]: 94.4 ng/mL
- concentration at 30 min ([1]; intravenous, 5 mg, Tigecycline Plasma Concentration, 30 min, 5 mg IV in PBS ([…]), SC431, mean): 76.2 ng/mL
- concentration at 40 min [1, 4]: 72 ng/mL
- concentration at 40 min [1, 5]: 60.5 ng/mL
- concentration at 60 min ([1]; intravenous, 5 mg, Tigecycline Plasma Concentration, 60 min, 5 mg IV in PBS ([…]), SC431, mean): 49.1 ng/mL
- concentration at 90 min [1, 4]: 59.9 ng/mL
- concentration at 90 min [1, 5]: 47.4 ng/mL
- concentration at 120 min [1, 5]: 42.3 ng/mL
- concentration at 360 min [1, 5]: 16.5 ng/mL
- AUC(0-t) ([1]; 0.08 mg/kg, 1 mg IV in PBS (0.08 mg/kg), SC427, individual dogs, read-out: AUC(0-t)): 56.2 ng·h/mL
- Cmax ([1]; 0.08 mg/kg, 1 mg IV in PBS (0.08 mg/kg), SC427, individual dogs, read-out: Cmax): 86 ng/mL
- AUC(0-t) ([1]; 0.08 mg/kg, 1 mg IV in PBS (0.08 mg/kg), SC427, mean, read-out: AUC(0-t)): 72.4 ng·h/mL
- Cmax ([1]; 0.08 mg/kg, 1 mg IV in PBS (0.08 mg/kg), SC427, mean, read-out: Cmax): 79.1 ng/mL
- AUC(0-t) ([1]; 0.08 mg/kg, IV bolus 1 mg (0.08 mg/kg), SC427, read-out: AUC(0-t), mean): 72.4 ng·h/mL
- Cmax ([1]; 0.08 mg/kg, IV bolus 1 mg (0.08 mg/kg), SC427, read-out: Cmax, mean): 79.1 ng/mL
- AUC(0-t) ([1]; 0.08 mg/kg, IV, Study 1 (SC427), 1 mg (0.08 mg/kg), mean (% CV), read-out: AUC(0-t)): 72.4 ng·h/mL
- Cmax ([1]; 0.08 mg/kg, IV, Study 1 (SC427), 1 mg (0.08 mg/kg), mean (% CV), read-out: Cmax): 79.1 ng/mL
- Cmax ([1]; […], 5 mg IV in PBS ([…]), SC431, individual dogs, read-out: Cmax): 336 ng/mL
- AUC(0-t) ([1]; […], 5 mg IV in PBS ([…]), SC431, mean, read-out: AUC(0-t)): 411 ng·h/mL
- Cmax ([1]; […], 5 mg IV in PBS ([…]), SC431, mean, read-out: Cmax): 335 ng/mL
- AUC(0-t) ([1]; […], IV bolus 5 mg ([…]), SC431, read-out: AUC(0-t), mean): 411 ng·h/mL
- Cmax ([1]; […], IV bolus 5 mg ([…]), SC431, read-out: Cmax, mean): 335 ng/mL
- AUC(0-t) ([1]; […], IV, Study 2 (SC431), 5 mg ([…]), mean (% CV), read-out: AUC(0-t)): 411 ng·h/mL
- Cmax ([1]; […], IV, Study 2 (SC431), 5 mg ([…]), mean (% CV), read-out: Cmax): 335 ng/mL
- Tmax ([1]; IV bolus 1 mg (0.08 mg/kg), SC427, read-out: Tmax, mean (converted)): 5 min
- Tmax ([1]; IV bolus 5 mg (0.42 mg/kg), SC431, read-out: Tmax (converted)): 5 min
- maximal oral bioavailablity % (% F) [2]: less than 5%
